Assay results published in ChEMBL document CHEMBL3785036 (J Pharm Sci, 1974).

Assays:
Type in all cases: ADME, organism-based
[1] = Drug metabolism in human rapid inactivators assessed as excretion of acetylisoniazid in urine at 1 g, iv by colorimetry; conditions: in vivo
[2] = Drug excretion in human subject rapid inactivator assessed as sum of isoniazid plus hydrazones, acetylisoniazid, isonicotinic acid and isonicotinuric acid level in urine at 670 mg, iv infused at constant rate 5.2min measured 195 mins after start of drug injection by colorimetry; conditions: in vivo, 3.25 h
[3] = Drug excretion in human subject rapid inactivator assessed as total isonicotinoyl compound level in urine at 670 mg, iv infused at constant rate 5.2min measured 259 mins after start of drug injection by colorimetry; conditions: in vivo
[4] = Drug excretion in human subject slow inactivator assessed as total isonicotinoyl compound level in urine at 681 mg, iv infused at constant rate 5.4 min measured 396 mins after start of drug injection by colorimetry; conditions: in vivo, 6.6 h
[5] = Drug excretion in human subject slow inactivator assessed as total isonicotinoyl compound level in urine at 681 mg, iv infused at constant rate 5.4 min measured 586 mins after start of drug injection by colorimetry; conditions: in vivo
[6] = Drug excretion in human subject slow inactivator assessed as total isonicotinoyl compound level in urine at 681 mg, iv infused at constant rate 5.4 min measured 613 mins after start of drug injection by colorimetry; conditions: in vivo
[7] = Drug excretion in human subject slow inactivator assessed as total isonicotinoyl compound level in urine at 681 mg, iv infused at constant rate 5.4 min measured 430.2 mins after start of drug injection by colorimetry; conditions: in vivo, 7.17 h
[8] = Drug excretion in human subject rapid inactivator assessed as sum of isoniazid plus hydrazones, acetylisoniazid, isonicotinic acid and isonicotinuric acid level in urine at 670 mg, iv infused at constant rate 5.2min measured 296 mins after start of drug injection by colorimetry; conditions: in vivo
[9] = Drug excretion in human subject slow inactivator assessed as sum of isoniazid plus hydrazones, acetylisoniazid, isonicotinic acid and isonicotinuric acid level in urine at 681 mg, iv infused at constant rate 5.4 min measured 396 mins after start of drug injection by colorimetry; conditions: in vivo, 6.6 h
[10] = Drug metabolism in human rapid inactivators assessed as excretion of alpha-ketoglutaric acid isonicotinoylhydrazone in urine at 1 g, iv by colorimetry; conditions: in vivo
[11] = Drug excretion in human subject slow inactivator assessed as total isonicotinoyl compound level in urine at 681 mg, iv infused at constant rate 5.4 min measured 747 mins after start of drug injection by colorimetry; conditions: in vivo, 12.45 h
[12] = Drug metabolism in human rapid inactivators assessed as excretion of isonicotinic acid in urine at 1 g, iv by colorimetry; conditions: in vivo
[13] = Drug metabolism in human slow inactivators assessed as excretion of 1,2-diacetylhydrazine in urine at 1 g, iv by colorimetry; conditions: in vivo
[14] = Drug excretion in human subject rapid inactivator assessed as total isonicotinoyl compound level in urine at 670 mg, iv infused at constant rate 5.2min measured 62 mins after start of drug injection by colorimetry; conditions: in vivo
[15] = Drug excretion in human subject slow inactivator assessed as sum of isoniazid plus hydrazones, acetylisoniazid, isonicotinic acid and isonicotinuric acid level in urine at 681 mg, iv infused at constant rate 5.4 min measured 59.1 mins after start of drug injection by colorimetry; conditions: in vivo, 0.985 h
[16] = Drug excretion in human rapid inactivators urine assessed as isoniazid plus hydrazones level at 1 g, iv by colorimetry; conditions: in vivo
[17] = Drug excretion in human subject slow inactivator assessed as sum of isoniazid plus hydrazones, acetylisoniazid, isonicotinic acid and isonicotinuric acid level in urine at 681 mg, iv infused at constant rate 5.4 min measured 524 mins after start of drug injection by colorimetry; conditions: in vivo
[18] = Drug excretion in human subject slow inactivator assessed as sum of isoniazid plus hydrazones, acetylisoniazid, isonicotinic acid and isonicotinuric acid level in urine at 681 mg, iv infused at constant rate 5.4 min measured 710 mins after start of drug injection by colorimetry; conditions: in vivo
[19] = Drug excretion in human subject rapid inactivator assessed as total isonicotinoyl compound level in urine at 670 mg, iv infused at constant rate 5.2min measured 158 mins after start of drug injection by colorimetry; conditions: in vivo
[20] = Drug excretion in human subject rapid inactivator assessed as sum of isoniazid plus hydrazones, acetylisoniazid, isonicotinic acid and isonicotinuric acid level in urine at 670 mg, iv infused at constant rate 5.2min measured 486 mins after start of drug injection by colorimetry; conditions: in vivo, 8.1 h
[21] = Drug excretion in human subject slow inactivator assessed as sum of isoniazid plus hydrazones, acetylisoniazid, isonicotinic acid and isonicotinuric acid level in urine at 681 mg, iv infused at constant rate 5.4 min measured 243.5 mins after start of drug injection by colorimetry; conditions: in vivo
[22] = Drug excretion in human subject slow inactivator assessed as sum of isoniazid plus hydrazones, acetylisoniazid, isonicotinic acid and isonicotinuric acid level in urine at 681 mg, iv infused at constant rate 5.4 min measured 747 mins after start of drug injection by colorimetry; conditions: in vivo, 12.45 h
[23] = Drug excretion in human subject slow inactivator assessed as sum of isoniazid plus hydrazones, acetylisoniazid, isonicotinic acid and isonicotinuric acid level in urine at 681 mg, iv infused at constant rate 5.4 min measured 466 mins after start of drug injection by colorimetry; conditions: in vivo
[24] = Drug excretion in human subject slow inactivator assessed as sum of isoniazid plus hydrazones, acetylisoniazid, isonicotinic acid and isonicotinuric acid level in urine at 681 mg, iv infused at constant rate 5.4 min measured 305 mins after start of drug injection by colorimetry; conditions: in vivo
[25] = Drug excretion in human subject rapid inactivator assessed as sum of isoniazid plus hydrazones, acetylisoniazid, isonicotinic acid and isonicotinuric acid level in urine at 670 mg, iv infused at constant rate 5.2min measured 373 mins after start of drug injection by colorimetry; conditions: in vivo
[26] = Drug metabolism in human slow inactivators assessed as excretion of pyruvic acid isonicotinoylhydrazone in urine at 1 g, iv by colorimetry; conditions: in vivo
[27] = Drug excretion in human subject rapid inactivator assessed as total isonicotinoyl compound level in urine at 670 mg, iv infused at constant rate 5.2min measured 400 mins after start of drug injection by colorimetry; conditions: in vivo
[28] = Drug excretion in human slow inactivators urine assessed as acetylisoniazid level at 1 g, iv by colorimetry; conditions: in vivo
[29] = Drug excretion in human subject slow inactivator assessed as total isonicotinoyl compound level in urine at 681 mg, iv infused at constant rate 5.4 min measured 150 mins after start of drug injection by colorimetry; conditions: in vivo, 2.5 h
[30] = Drug excretion in human subject slow inactivator assessed as sum of isoniazid plus hydrazones, acetylisoniazid, isonicotinic acid and isonicotinuric acid level in urine at 681 mg, iv infused at constant rate 5.4 min measured 370.3 mins after start of drug injection by colorimetry; conditions: in vivo, 6.17167 h
[31] = Drug metabolism in human rapid inactivators assessed as excretion of isonicotinuric acid in urine at 1 g, iv by colorimetry; conditions: in vivo
[32] = Drug excretion in human subject slow inactivator assessed as sum of isoniazid plus hydrazones, acetylisoniazid, isonicotinic acid and isonicotinuric acid level in urine at 681 mg, iv infused at constant rate 5.4 min measured 116 mins after start of drug injection by colorimetry; conditions: in vivo

NNC(=O)c1ccncc1 [ISONIAZID]
Drug metabolism [1]: 43.8 %molar
Drug excretion [2]: 57.7 mg
Drug excretion [3]: 39.7 mg
Drug excretion [4]: 16.5 mg
Drug excretion [5]: 12.7 mg
Drug excretion [6]: 12.2 mg
Drug excretion [7]: 20 mg
Drug excretion [8]: 39.4 mg
Drug excretion [9]: 17.18 mg
Drug metabolism [10]: 1.4 %molar
Drug excretion [11]: 9.44 mg
Drug metabolism [12]: 27.1 %molar
Drug metabolism [13]: 32.3 %molar
Drug excretion [14]: 43.3 mg
Drug excretion [15]: 30.44 mg
Drug excretion [16]: 99.6%
Drug excretion [17]: 11.32 mg
Drug excretion [18]: 10.68 mg
Drug excretion [19]: 51.7 mg
Drug excretion [20]: 13 mg
Drug excretion [21]: 37.21 mg
Drug excretion [22]: 10.074 mg
Drug excretion [23]: 20.23 mg
Drug excretion [24]: 27.92 mg
Drug excretion [25]: 28 mg
Drug metabolism [26]: 13.9 %molar
Drug excretion [27]: 18.5 mg
Drug excretion [28]: 97%
Drug excretion [29]: 38.1 mg
Drug excretion [30]: 26.76 mg
Drug metabolism [31]: 21.3 %molar
Drug excretion [32]: 32.27 mg
